From US20240336594A1, “SIX-MEMBERED ARYL OR HETEROARYL AMIDES, AND COMPOSITION AND USE THEREOF” (BETTA PHARMACEUTICALS CO., LTD, priority 2021, published 2024)
pIC50: −log10 of the molar value.

Target: T1, MALT1 (Homo sapiens, UniProt Q9UDY8)
T1 sequence (Q9UDY8 1-824): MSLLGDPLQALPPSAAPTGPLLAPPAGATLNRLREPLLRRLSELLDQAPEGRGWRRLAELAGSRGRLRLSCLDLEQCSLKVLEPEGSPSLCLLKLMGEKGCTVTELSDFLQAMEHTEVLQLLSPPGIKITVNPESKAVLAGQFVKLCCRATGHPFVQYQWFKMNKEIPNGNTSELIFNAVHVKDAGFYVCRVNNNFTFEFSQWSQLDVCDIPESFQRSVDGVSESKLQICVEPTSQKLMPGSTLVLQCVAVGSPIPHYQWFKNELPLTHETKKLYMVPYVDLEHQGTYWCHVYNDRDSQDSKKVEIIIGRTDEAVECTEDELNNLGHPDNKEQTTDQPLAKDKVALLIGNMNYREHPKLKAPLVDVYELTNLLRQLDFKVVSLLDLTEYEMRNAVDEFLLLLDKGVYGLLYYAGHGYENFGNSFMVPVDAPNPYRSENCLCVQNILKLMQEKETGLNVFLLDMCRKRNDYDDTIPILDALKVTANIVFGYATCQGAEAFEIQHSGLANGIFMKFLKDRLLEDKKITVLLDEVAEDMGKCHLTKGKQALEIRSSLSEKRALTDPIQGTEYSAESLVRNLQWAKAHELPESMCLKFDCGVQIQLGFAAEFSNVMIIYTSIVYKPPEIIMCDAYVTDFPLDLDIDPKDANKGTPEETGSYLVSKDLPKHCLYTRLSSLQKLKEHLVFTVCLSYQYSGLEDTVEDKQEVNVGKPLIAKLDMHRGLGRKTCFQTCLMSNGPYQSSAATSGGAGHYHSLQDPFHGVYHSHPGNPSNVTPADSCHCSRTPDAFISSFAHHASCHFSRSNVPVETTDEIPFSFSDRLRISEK
Assay: MALT1 protease inhibition assay (AMC-labeled peptide, fluorescence 360/460)
Type: biochemical
Conditions: substrate Ac-LRSR-AMC, 15 min preincubation, 90 min at 25° C.
Procedure: Test compounds of the present invention (in 100% DMSO) were spotted into a 384-well dilution plate and serially diluted to the required concentrations with DMSO. Then, 0.2 μL of the test compounds were transferred into a new 384-well reaction plate by Echo following centrifugation. The MALT enzyme and its substrate, AMC-labeled peptide, were prepared in 1× protease buffer to yield 2× enzyme solution and 2× peptide solution. Subsequently, 10 μL of 2× enzyme solution was added into the 384-well reaction plate, incubating with the test compounds for 15 minutes at 25° C. After that, 10 μL of 2× peptide solution was added into the plate, continuing to incubate for 90 minutes at 25° C. The plate was then placed on an Envision multifunctional microplate reader to collect raw data, which would be converted into inhibition rate:
Inhibition rate %=(max−sample)/(max−min)*100%. • “max” values were measured using the reaction with enzyme but no compound treated, while “min” values were generated from control wells containing assay buffer without enzyme.
Curve fitting was done with Graphpad Prism software to determine the IC50 values. The specific experimental operations are as follows:
58.82 g Na Citrate·2H2O powder was added into 140 mL ddH2O and mixed in a 37° C. water bath. Once there were no visible particles, the remaining solutions were added successively with continuous stirring for 10 minutes. The final volume was adjusted to 200 mL. The buffer was stored at room temperature. DTT was added before use.
• 1) All test compounds were diluted from 10 mM stock solution into 1 mM in a 384 well dilution plate (labcyte, PP-0200); • 2) Ten various concentrations of the diluted compound solution above were obtained by serial dilution at an equal ratio of 1:3; • 3) 0.2 μL DMSO was transferred to two empty wells of the 384 reaction plate as blank controls without compound and enzyme respectively; • 4) 0.2 μL of the test compound at different concentrations was also transferred into the 384 reaction plate by Echo, with two duplicate wells for each concentration, then the plate was centrifuged at 1000 rpm for 1 min.
• 1) The MALT1 protease and AMC-labeled peptide was prepared in 1× protease buffer to obtain 2× enzyme solution and 2× peptide solution. 10 μL of 2× enzyme solution was added into the 384-well reaction plate. The plate was centrifuged at 1000 rpm for 1 min and incubated for 15 min at 25° C. • 2) 10 μL of 2× peptide solution was then transferred to the 384 reaction plate, and the plate was centrifuged at 1000 rpm for 1 min and incubate for 90 min at 25° C.

“5-(2′-amino-5-chloro-2,4′- difluoro-[1,1′-biphenyl]-4- carboxamido)-3-chloro-N- (2,2-difluoro-2λ3- ethyl)picolinamide [Example A457]” and `C#Cc1cc(F)cnc1-c1cc(Cl)c(C(=O)Nc2ccnc(C(F)(F)F)c2)cc1F` [Example A324, 2-chloro-4-(3-ethyny1-5-fluoropyridin-2-y1)-5-fluoro-N-(2-(trifluoromethyl)pyridin-4-yl)benzamide] cannot be ordered by pIC50: 7.00 to 8.00 for the first, at least 8.00 for the second.

`C#Cc1cnccc1-c1c(F)c(F)c(C(=O)Nc2cnc(-n3nccn3)c(Cl)c2)c(F)c1F` [Example A333, N-(5-chloro-6-(2H-1,2,3-triazol-2-yl)pyridin-3-y1)-4-(3-ethynylpyridin-4-y1)-2,3,5,6-tetrafluorobenzamide] and `C#Cc1cc(F)cnc1-c1cc(Cl)c(C(=O)Nc2cnc(-n3nccn3)c(Cl)c2)cc1F` [Example A335, 2-chloro-N-(5-chloro-6-(2H-1,2,3-triazol-2-yl)pyridin-3-y1)-4-(3-ethyny1-5-fluoropyridin-2-y1)-5-fluorobenzamide] cannot be ordered by pIC50: at least 8.00 for the first, at least 8.00 for the second.

`C#Cc1cnccc1-c1cc(Cl)c(C(=O)Nc2ccc(OC)c(Cl)c2)cc1F` [Example A338, 2-chloro-N-(3-chloro-4-methoxyphenyl)-4-(3-ethynylpyridin-4-y1)-5-fluorobenzamide] and `C=CC(=O)Nc1cnccc1-c1cc(Cl)c(C(=O)Nc2cnc(-n3nccn3)c(Cl)c2)cc1F` [Example A342, 4-(3-acrylamidopyridin-4-y1)-2-chloro-N-(5-chloro-6-(2H-1,2,3-triazol-2-y1)pyridin-3-y1)-5-fluorobenzamide] cannot be ordered by pIC50: at least 8.00 for the first, at least 8.00 for the second.

`C=Cc1cnccc1-c1cc(Cl)c(C(=O)Nc2cnc(-n3nccn3)c(C(F)(F)F)c2)cc1F` [Example A346, N-(6-(2H-1,2,3-triazol-2-yl)-5-(trifluoromethyl)pyridin-3-yl)-2-chloro-5-fluoro-4-(3-vinylpyridin-4-y1)benzamide] and `C#Cc1cc(C(=O)Nc2cnc(-n3nccn3)c(Cl)c2)c(C)cc1-c1ccc(F)cc1N` [Example A409] cannot be ordered by pIC50: at least 8.00 for the first, at least 8.00 for the second.

`C#Cc1cccc(Cl)c1-c1cc(Cl)c(C(=O)Nc2cnc(-n3nccn3)c(C(F)(F)F)c2)cc1F` [Example A413] and `C#Cc1cc(C(=O)Nc2cnc(-n3nccn3)c(Cl)c2)c(C)cc1-c1ccc(F)cc1Cl` [Example A414, 2′-chloro-N-(5-chloro-6-(2H-1,2,3-triazol-2-yl)pyridin-3-yl)-2-ethynyl-4′-fluoro-5-methyl-[1,1′-biphenyl]-4-carboxamide] cannot be ordered by pIC50: at least 8.00 for the first, 7.00 to 8.00 for the second.

First: C#Cc1cc(F)ccc1-c1cc(C)c(C(=O)Nc2cnc(-n3nccn3)c(Cl)c2)cc1C#C [Example A415]
Second: C#Cc1cc(C(=O)Nc2cnc(-n3nccn3)c(Cl)c2)c(C)cc1-c1ccc(F)nc1N [Example A416, 4-(2-amino-6-fluoropyridin-3-yl)-N-(5-chloro-6-(2H-1,2,3-triazol-2-yl)pyridin-3-yl)-5-ethynyl-2-methylbenzamide]
The pIC50 of the first is higher: 7.00 to 8.00 for the first, 6.30 to 7.00 for the second. The first is the more potent here.

Compared with `C#Cc1cc(C(=O)Nc2cnc(-n3nccn3)c(Cl)c2)c(C)cc1-c1ccncc1OC` [Example A417, N-(5-chloro-6-(2H-1,2,3-triazol-2-yl)pyridin-3-yl)-5-ethynyl-4-(3-methoxypyridin-4-yl)-2-methylbenzamide], `Nc1cc(F)ccc1-c1cc(Cl)c(C(=O)Nc2cnc(-n3nccn3)c(Cl)c2)cc1C1=CCCCC1` [Example A418, 2-amino-5′-chloro-N-(5-chloro-6-(2H-1,2,3-triazol-2-yl)pyridin-3-yl)-4-fluoro-2″,3″,4″,5″-tetrahydro-[1,1′:2′,1″-terphenyl]-4′-carboxamide] is lower in pIC50: 7.00 to 8.00 for the first, under 6.30 for the second.

`Cc1cc(-c2ccc(F)cc2Cl)c(-c2ccccc2)cc1C(=O)Nc1cnc(-n2nccn2)c(Cl)c1` [Example A419, 2-chloro-N-(5-chloro-6-(2H-1,2,3-triazol-2-yl)pyridin-3-yl)-4-fluoro-5′-methyl-[1,1′:2′,1″-terphenyl]-4′-carboxamide] and `Cc1cc(-c2ccc(F)cc2N)c(C2=CCCC2)cc1C(=O)Nc1cnc(-n2nccn2)c(Cl)c1` [Example A420, 2′-amino-N-(5-chloro-6-(2H-1,2,3-triazol-2-yl)pyridin-3-yl)-2-(cyclopent-1-en-1-yl)-4′-fluoro-5-methyl-[1,1′-biphenyl]-4-carboxamide] cannot be ordered by pIC50: under 6.30 for the first, under 6.30 for the second.

`Cc1cc(-c2ccc(F)cc2N)c(-c2ccccc2)cc1C(=O)Nc1cnc(-n2nccn2)c(Cl)c1` [Example A421, 2-amino-N-(5-chloro-6-(2H-1,2,3-triazol-2-yl)pyridin-3-yl)-4-fluoro-5′-methyl-[1,1′:2′,1″-terphenyl]-4′-carboxamide] and `C#Cc1cc(F)ccc1-c1cc(C)c(C(=O)Nc2cnc(-n3nccn3)c(Cl)c2)cc1-c1ccccc1` [Example A422, N-(5-chloro-6-(2H-1,2,3-triazol-2-yl)pyridin-3-yl)-2-ethynyl-4-fluoro-5′-methyl-[1,1′:2′,1″-terphenyl]-4′-carboxamide] cannot be ordered by pIC50: under 6.30 for the first, under 6.30 for the second.

`CC#Cc1cc(C(=O)Nc2cnc(-n3nccn3)c(Cl)c2)c(C)cc1-c1ccc(F)cc1N` [Example A423] and `C=Cc1cc(C(=O)Nc2cnc(-n3nccn3)c(Cl)c2)c(Cl)cc1-c1ccc(F)cc1N` [Example A424, 2′-amino-5-chloro-N-(5-chloro-6-(2H-1,2,3-triazol-2-yl)pyridin-3-yl)-4′-fluoro-2-vinyl-[1,1′-biphenyl]-4-carboxamide] fall in the same range of pIC50: 7.00 to 8.00 for the first, 7.00 to 8.00 for the second.

`C=Cc1cc(C(=O)Nc2cnc(-n3nccn3)c(Cl)c2)c(C)cc1-c1ccc(F)cc1N` [Example A425] and `C#Cc1cnccc1-c1cc(Cl)c(C(=O)Nc2cnc(C(=O)NCCC)c(Cl)c2)cc1F` [Example A430, 3-chloro-5-(2-chloro-4-(3-ethynylpyridin-4-yl)-5-fluorobenzamido)-N-propylpicolinamide] cannot be ordered by pIC50: 7.00 to 8.00 for the first, at least 8.00 for the second.

`C#Cc1cnccc1-c1cc(Cl)c(C(=O)Nc2cnc(C(=O)NCCOC(F)(F)F)c(Cl)c2)cc1F` [Example A431, 3-chloro-5-(2-chloro-4-(3-ethynylpyridin-4-yl)-5-fluorobenzamido)-N-(2-(trifluoromethoxy)ethyl) picolinamide] and `C#Cc1cnccc1-c1cc(Cl)c(C(=O)Nc2cnc(C(=O)NCCc3ccccc3)c(Cl)c2)cc1F` [Example A432, 3-chloro-5-(2-chloro-4-(3-ethynylpyridin-4-yl)-5-fluorobenzamido)-N-phenethylpicolinamide] fall in the same range of pIC50: 7.00 to 8.00 for the first, 7.00 to 8.00 for the second.

`C#Cc1cnccc1-c1cc(Cl)c(C(=O)Nc2cnc(C(=O)NCc3ccoc3)c(Cl)c2)cc1F` [Example A433, 3 3-chloro-5-(2-chloro-4-(3-ethynylpyridin-4-yl)-5-fluorobenzamido)-N-(furan-3-ylmethyl)picolinamide] and `C#Cc1cnccc1-c1cc(Cl)c(C(=O)Nc2cnc(C(=O)NCC(C)(C)C)c(Cl)c2)cc1F` [Example A434, 3-chloro-5-(2-chloro-4-(3-ethynylpyridin-4-yl)-5-fluorobenzamido)-N-neopentylpicolinamide] fall in the same range of pIC50: 7.00 to 8.00 for the first, 7.00 to 8.00 for the second.

`C#Cc1cnccc1-c1cc(Cl)c(C(=O)Nc2cnc(C(=O)NCC(=O)N(CC)CC)c(Cl)c2)cc1F` [Example A435, 3-chloro-5-(2-chloro-4-(3-ethynylpyridin-4-yl)-5-fluorobenzamido)-N-(2-(diethylamino)-2-oxoethyl)picolinamide] gave a pIC50 of 7.00 to 8.00.
